Experimental data published in PubChem BioAssay (NCI).
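Growth conditions: 96-well plates. Treatment: test compound, 48 hours, 5 concentrations. Analysis: linear interpolation between bracketing concentrations; unreached endpoints set to highest concentration. TGI: concentration producing complete growth inhibition.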

Legend:
Assay in all cases: growth of human tumour cells (NCI), 48 h
[1] = test system: U251 CNS
[2] = test system: HT29 colon
[3] = test system: SK-MEL-5 melanoma
[4] = test system: LOX IMVI melanoma
[5] = test system: RPMI-8226 leukemia
[6] = test system: SF-268 CNS
[7] = test system: T-47D breast
[8] = test system: BT-549 breast
[9] = test system: A498 renal
[10] = test system: HL-60(TB) leukemia
[11] = test system: NCI/ADR-RES ovarian
[12] = test system: K-562 leukemia
[13] = test system: SN12C renal
[14] = test system: IGROV1 ovarian
[15] = test system: OVCAR-4 ovarian
[16] = test system: MDA-N
[17] = test system: UACC-62 melanoma
[18] = test system: PC-3 prostate
[19] = test system: OVCAR-3 ovarian
[20] = test system: SK-MEL-2 melanoma
[21] = test system: HOP-62 NSCLC
[22] = test system: SNB-75 CNS
[23] = test system: MOLT-4 leukemia
[24] = test system: KM12 colon
[25] = test system: NCI-H460 lung
[26] = test system: COLO 205 colon
[27] = test system: DU-145 prostate
[28] = test system: NCI-H23 lung
[29] = test system: HCC-2998 colon
[30] = test system: SW-620 colon
[31] = test system: CAKI-1 renal
[32] = test system: SNB-19 CNS
[33] = test system: HS 578T breast
[34] = test system: MDA-MB-435
[35] = test system: 786-0 renal
[36] = test system: EKVX NSCLC
[37] = test system: NCI-H226 lung
[38] = test system: HCT-15 colon
[39] = test system: HCT-116 colon
[40] = test system: CCRF-CEM leukemia
[41] = test system: MDA-MB-231 breast
[42] = test system: OVCAR-8 ovarian

## CCCOC(=O)c1cc(C(=CCC[C@H]2CC[C@@]3(C)[C@@H](CC[C@@H]4[C@@H]3CC[C@]3(C)[C@@H](C(C)CCCC(C)C)CC[C@@H]43)C2)c2cc(Cl)c(O)c(C(=O)OCCC)c2)cc(Cl)c1O (some centres not stated)
[1]
  TGI: > 50 µM
[2]
  TGI: > 50 µM
[3]
  TGI: > 50 µM
[4]
  TGI: > 50 µM
[5]
  TGI: > 50 µM
[6]
  TGI: > 50 µM
[7]
  TGI: > 50 µM
[8]
  TGI: > 50 µM
[9]
  TGI: > 50 µM
[10]
  TGI: > 50 µM
[11]
  TGI: > 50 µM
[12]
  TGI: > 5 µM
[13]
  TGI: > 50 µM
[14]
  TGI: > 50 µM
[15]
  TGI: > 50 µM
[16]
  TGI: > 50 µM
[17]
  TGI: > 50 µM
[18]
  TGI: > 50 µM
[19]
  TGI: > 50 µM
[20]
  TGI: > 50 µM
[21]
  TGI: > 50 µM
[22]
  TGI: > 50 µM
[23]
  TGI: > 50 µM
[24]
  TGI: > 50 µM
[25]
  TGI: > 50 µM
[26]
  TGI: > 50 µM
[27]
  TGI: > 50 µM
[28]
  TGI: > 50 µM
[29]
  TGI: > 50 µM
[30]
  TGI: > 50 µM
[31]
  TGI: > 50 µM
[32]
  TGI: > 50 µM
[33]
  TGI: > 50 µM
[34]
  TGI: > 50 µM
[35]
  TGI: > 50 µM
[36]
  TGI: > 50 µM
[37]
  TGI: > 50 µM
[38]
  TGI: > 50 µM
[39]
  TGI: > 50 µM
[40]
  TGI: > 50 µM
[41]
  TGI: > 50 µM
[42]
  TGI: > 50 µM
